We go through one molecule from article PMC4504079, “Andrographolide sodium bisulphite-induced inactivation of urease: inhibitory potency, kinetics and mechanism” (BMC Complementary and Alternative Medicine, 2015).

Broadly, the IC50 is the concentration at which inhibition is half-maximal.

Experiment [1] concerns the target T1, Helicobacter pylori urease (HPU) (Helicobacter pylori, UniProt P69996).
T1 construct: gene ureB; crude urease solution from H. pylori ATCC 43504
The experiment can be described thus: urease activity assay on desalted crude bacterial extract (modified Berthelot). The experiment is classed as biochemical.

The next experiment concerns the target jack bean urease (JBU) (Canavalia ensiformis, UniProt P07374). The experiment can be described thus: urease activity assay (modified Berthelot ammonia determination), slow-binding progress curves. The experiment is classed as biochemical.

T1 sequence (P69996 whole entry): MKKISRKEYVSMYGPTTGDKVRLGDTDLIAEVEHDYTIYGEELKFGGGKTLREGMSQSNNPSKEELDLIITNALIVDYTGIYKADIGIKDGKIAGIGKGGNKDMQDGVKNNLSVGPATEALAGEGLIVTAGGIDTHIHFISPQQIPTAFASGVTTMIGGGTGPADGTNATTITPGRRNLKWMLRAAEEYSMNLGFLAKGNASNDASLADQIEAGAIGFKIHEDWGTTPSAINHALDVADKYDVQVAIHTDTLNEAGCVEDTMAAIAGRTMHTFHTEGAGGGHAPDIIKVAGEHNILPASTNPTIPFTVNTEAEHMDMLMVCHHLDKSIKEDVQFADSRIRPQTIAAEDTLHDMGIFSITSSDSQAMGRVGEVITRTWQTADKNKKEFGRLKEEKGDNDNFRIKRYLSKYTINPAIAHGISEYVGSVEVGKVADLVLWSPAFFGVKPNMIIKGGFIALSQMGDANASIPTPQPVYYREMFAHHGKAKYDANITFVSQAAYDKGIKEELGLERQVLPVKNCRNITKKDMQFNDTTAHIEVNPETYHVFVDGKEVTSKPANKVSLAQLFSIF
Sequence of jack bean urease (JBU) (P07374 whole entry): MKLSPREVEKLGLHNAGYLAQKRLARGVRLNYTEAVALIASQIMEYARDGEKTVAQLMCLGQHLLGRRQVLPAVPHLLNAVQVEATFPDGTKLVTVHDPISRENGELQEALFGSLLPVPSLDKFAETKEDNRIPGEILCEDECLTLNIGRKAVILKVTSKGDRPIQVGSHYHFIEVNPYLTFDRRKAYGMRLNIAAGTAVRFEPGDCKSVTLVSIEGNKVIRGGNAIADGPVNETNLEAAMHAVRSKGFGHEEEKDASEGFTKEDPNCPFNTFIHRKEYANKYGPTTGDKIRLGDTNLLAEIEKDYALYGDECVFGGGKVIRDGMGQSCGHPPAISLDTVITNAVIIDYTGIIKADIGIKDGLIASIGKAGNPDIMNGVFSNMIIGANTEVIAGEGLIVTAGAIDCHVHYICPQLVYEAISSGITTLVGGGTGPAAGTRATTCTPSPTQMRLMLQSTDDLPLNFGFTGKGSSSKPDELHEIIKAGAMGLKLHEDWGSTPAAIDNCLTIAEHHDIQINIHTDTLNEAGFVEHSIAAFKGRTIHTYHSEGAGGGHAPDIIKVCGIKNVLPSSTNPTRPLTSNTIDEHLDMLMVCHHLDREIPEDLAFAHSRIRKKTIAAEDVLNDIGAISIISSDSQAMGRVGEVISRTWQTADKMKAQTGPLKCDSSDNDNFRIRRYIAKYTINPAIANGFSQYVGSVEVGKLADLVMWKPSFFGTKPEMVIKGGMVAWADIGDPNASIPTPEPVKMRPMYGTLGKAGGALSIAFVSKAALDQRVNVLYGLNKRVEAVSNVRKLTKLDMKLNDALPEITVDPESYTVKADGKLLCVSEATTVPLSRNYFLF

For the molecule `C=C1CC[C@@H]2[C@](C)(CO)[C@H](O)CC[C@@]2(C)[C@@H]1CC(C1=CCOC1=O)S(=O)(=O)O` (some centres unmarked) [ASB, Andrographolide sodium bisulphite], the figures for the IC50 (in experiment [1]; on jack bean urease (JBU)) were 3.17 ± 0.34 mM and 3.28 ± 0.13 mM, respectively.
